Test results: paper PMC7156458, “Synthetic biology based construction of biological activity-related library of fungal decalin-containing diterpenoid pyrones” (Nature Communications, 2020)

Biological target: Aβ42 (Homo sapiens, UniProt P05067)
Test: Th-T (thioflavin-T) assay of Aβ42 aggregation
Type: biochemical
Settings: for Th-T fluorescence of Aβ42 (sheet Fig. 7a), mean of three wells: head suffix _50 (concentration 50); for Th-T assay plate reading, mean of three wells (Supplementary Fig. 47): source data, Ab alone and No Ab as controls; for Th-T fluorescence, mean of three wells: Supplementary Fig. 47 source data

Sequence of Aβ42 (P05067 672-713): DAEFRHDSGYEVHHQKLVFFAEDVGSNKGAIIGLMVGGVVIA

## C=C1CC[C@@H]2[C@](C)(CC[C@H]3O[C@H](C=C(C)C)C[C@@]23C)[C@@H]1Cc1c(OC)oc(CO)c(C(=O)OC)c1=O [Compound 21]
Reading M73
  Th-T fluorescence of Aβ42 (sheet Fig. 7a), mean of three wells: 0.2746
Reading M74
  Th-T fluorescence of Aβ42 (sheet Fig. 7a), mean of three wells: 0.2806
Reading M75
  Th-T fluorescence of Aβ42 (sheet Fig. 7a), mean of three wells: 0.286
Reading M76
  Th-T fluorescence of Aβ42 (sheet Fig. 7a), mean of three wells: 0.2937
Reading M77
  Th-T fluorescence of Aβ42 (sheet Fig. 7a), mean of three wells: 0.3019
Reading M78
  Th-T fluorescence of Aβ42 (sheet Fig. 7a), mean of three wells: 0.3119
Reading M79
  Th-T fluorescence of Aβ42 (sheet Fig. 7a), mean of three wells: 0.3191
Reading M80
  Th-T fluorescence of Aβ42 (sheet Fig. 7a), mean of three wells: 0.3266
Reading M81
  Th-T fluorescence of Aβ42 (sheet Fig. 7a), mean of three wells: 0.339
Reading M82
  Th-T fluorescence of Aβ42 (sheet Fig. 7a), mean of three wells: 0.3487
Reading M83
  Th-T fluorescence of Aβ42 (sheet Fig. 7a), mean of three wells: 0.3612
Reading M84
  Th-T fluorescence of Aβ42 (sheet Fig. 7a), mean of three wells: 0.3714
Measurement M1
  Th-T assay plate reading, mean of three wells (Supplementary Fig. 47): 0.221
Measurement M2
  Th-T assay plate reading, mean of three wells (Supplementary Fig. 47): 0.2228
Measurement M3
  Th-T assay plate reading, mean of three wells (Supplementary Fig. 47): 0.2221
Measurement M4
  Th-T assay plate reading, mean of three wells (Supplementary Fig. 47): 0.222
Measurement M5
  Th-T assay plate reading, mean of three wells (Supplementary Fig. 47): 0.2108
Measurement M6
  Th-T assay plate reading, mean of three wells (Supplementary Fig. 47): 0.2062
Measurement M7
  Th-T assay plate reading, mean of three wells (Supplementary Fig. 47): 0.1997
Measurement M8
  Th-T assay plate reading, mean of three wells (Supplementary Fig. 47): 0.1959
Measurement M9
  Th-T assay plate reading, mean of three wells (Supplementary Fig. 47): 0.193
Measurement M10
  Th-T assay plate reading, mean of three wells (Supplementary Fig. 47): 0.1931
Measurement M11
  Th-T assay plate reading, mean of three wells (Supplementary Fig. 47): 0.1918
Measurement M12
  Th-T assay plate reading, mean of three wells (Supplementary Fig. 47): 0.1925
Measurement M13
  Th-T assay plate reading, mean of three wells (Supplementary Fig. 47): 0.1929
Measurement M14
  Th-T assay plate reading, mean of three wells (Supplementary Fig. 47): 0.1925
Measurement M15
  Th-T assay plate reading, mean of three wells (Supplementary Fig. 47): 0.1938
Measurement M16
  Th-T assay plate reading, mean of three wells (Supplementary Fig. 47): 0.1946
Reading M107, compound at 10 (head suffix _10)
  Th-T fluorescence, mean of three wells (Fig. 7a): 1.6819
Reading M107, compound at 20 (head suffix _20)
  Th-T fluorescence, mean of three wells (Fig. 7a): 0.9322
Reading M107, compound at 50 (head suffix _50)
  Th-T fluorescence, mean of three wells (Fig. 7a): 0.4795
Reading M108, compound at 10 (head suffix _10)
  Th-T fluorescence, mean of three wells (Fig. 7a): 1.643
Reading M108, compound at 20 (head suffix _20)
  Th-T fluorescence, mean of three wells (Fig. 7a): 0.9316
Reading M108, compound at 50 (head suffix _50)
  Th-T fluorescence, mean of three wells (Fig. 7a): 0.4805
Reading M109, compound at 10 (head suffix _10)
  Th-T fluorescence, mean of three wells (Fig. 7a): 1.641
Reading M109, compound at 20 (head suffix _20)
  Th-T fluorescence, mean of three wells (Fig. 7a): 0.9416
Reading M109, compound at 50 (head suffix _50)
  Th-T fluorescence, mean of three wells (Fig. 7a): 0.4841
Reading M110, compound at 10 (head suffix _10)
  Th-T fluorescence, mean of three wells (Fig. 7a): 1.6563
Reading M110, compound at 20 (head suffix _20)
  Th-T fluorescence, mean of three wells (Fig. 7a): 0.9358
Reading M110, compound at 50 (head suffix _50)
  Th-T fluorescence, mean of three wells (Fig. 7a): 0.4823
Reading M111, compound at 10 (head suffix _10)
  Th-T fluorescence, mean of three wells (Fig. 7a): 1.67
Reading M111, compound at 20 (head suffix _20)
  Th-T fluorescence, mean of three wells (Fig. 7a): 0.9311
Reading M111, compound at 50 (head suffix _50)
  Th-T fluorescence, mean of three wells (Fig. 7a): 0.4866
Reading M112, compound at 10 (head suffix _10)
  Th-T fluorescence, mean of three wells (Fig. 7a): 1.658
Reading M112, compound at 20 (head suffix _20)
  Th-T fluorescence, mean of three wells (Fig. 7a): 0.9334
Reading M112, compound at 50 (head suffix _50)
  Th-T fluorescence, mean of three wells (Fig. 7a): 0.4858
Reading M113, compound at 10 (head suffix _10)
  Th-T fluorescence, mean of three wells (Fig. 7a): 1.671
Reading M113, compound at 20 (head suffix _20)
  Th-T fluorescence, mean of three wells (Fig. 7a): 0.9626
Reading M113, compound at 50 (head suffix _50)
  Th-T fluorescence, mean of three wells (Fig. 7a): 0.4847
Reading M114, compound at 10 (head suffix _10)
  Th-T fluorescence, mean of three wells (Fig. 7a): 1.656
Reading M114, compound at 20 (head suffix _20)
  Th-T fluorescence, mean of three wells (Fig. 7a): 0.941
Reading M114, compound at 50 (head suffix _50)
  Th-T fluorescence, mean of three wells (Fig. 7a): 0.488
Reading M115, compound at 10 (head suffix _10)
  Th-T fluorescence, mean of three wells (Fig. 7a): 1.673
Reading M115, compound at 20 (head suffix _20)
  Th-T fluorescence, mean of three wells (Fig. 7a): 0.9605
Reading M115, compound at 50 (head suffix _50)
  Th-T fluorescence, mean of three wells (Fig. 7a): 0.4915
Reading M116, compound at 10 (head suffix _10)
  Th-T fluorescence, mean of three wells (Fig. 7a): 1.71
Reading M116, compound at 20 (head suffix _20)
  Th-T fluorescence, mean of three wells (Fig. 7a): 0.9595
Reading M116, compound at 50 (head suffix _50)
  Th-T fluorescence, mean of three wells (Fig. 7a): 0.4913
Reading M117, compound at 10 (head suffix _10)
  Th-T fluorescence, mean of three wells (Fig. 7a): 1.657
Reading M117, compound at 20 (head suffix _20)
  Th-T fluorescence, mean of three wells (Fig. 7a): 0.9521
Reading M117, compound at 50 (head suffix _50)
  Th-T fluorescence, mean of three wells (Fig. 7a): 0.4909
Reading M118, compound at 10 (head suffix _10)
  Th-T fluorescence, mean of three wells (Fig. 7a): 1.7
Reading M118, compound at 20 (head suffix _20)
  Th-T fluorescence, mean of three wells (Fig. 7a): 0.9478
Reading M118, compound at 50 (head suffix _50)
  Th-T fluorescence, mean of three wells (Fig. 7a): 0.4918
Reading M119, compound at 10 (head suffix _10)
  Th-T fluorescence, mean of three wells (Fig. 7a): 1.686
Reading M119, compound at 20 (head suffix _20)
  Th-T fluorescence, mean of three wells (Fig. 7a): 0.9445
Reading M119, compound at 50 (head suffix _50)
  Th-T fluorescence, mean of three wells (Fig. 7a): 0.4929
Reading M120, compound at 10 (head suffix _10)
  Th-T fluorescence, mean of three wells (Fig. 7a): 1.675
Reading M120, compound at 20 (head suffix _20)
  Th-T fluorescence, mean of three wells (Fig. 7a): 0.9469
Reading M120, compound at 50 (head suffix _50)
  Th-T fluorescence, mean of three wells (Fig. 7a): 0.4937
Reading M121, compound at 10 (head suffix _10)
  Th-T fluorescence, mean of three wells (Fig. 7a): 1.7005
Reading M121, compound at 20 (head suffix _20)
  Th-T fluorescence, mean of three wells (Fig. 7a): 0.9507
Reading M121, compound at 50 (head suffix _50)
  Th-T fluorescence, mean of three wells (Fig. 7a): 0.4951
Reading M122, compound at 10 (head suffix _10)
  Th-T fluorescence, mean of three wells (Fig. 7a): 1.701
Reading M122, compound at 20 (head suffix _20)
  Th-T fluorescence, mean of three wells (Fig. 7a): 0.9556
Reading M122, compound at 50 (head suffix _50)
  Th-T fluorescence, mean of three wells (Fig. 7a): 0.493
Reading M123, compound at 10 (head suffix _10)
  Th-T fluorescence, mean of three wells (Fig. 7a): 1.651
Reading M123, compound at 20 (head suffix _20)
  Th-T fluorescence, mean of three wells (Fig. 7a): 0.9514
Reading M123, compound at 50 (head suffix _50)
  Th-T fluorescence, mean of three wells (Fig. 7a): 0.4951
Reading M124, compound at 10 (head suffix _10)
  Th-T fluorescence, mean of three wells (Fig. 7a): 1.705
Reading M124, compound at 20 (head suffix _20)
  Th-T fluorescence, mean of three wells (Fig. 7a): 0.9577
Reading M124, compound at 50 (head suffix _50)
  Th-T fluorescence, mean of three wells (Fig. 7a): 0.4977
Reading M125, compound at 10 (head suffix _10)
  Th-T fluorescence, mean of three wells (Fig. 7a): 1.692
Reading M125, compound at 20 (head suffix _20)
  Th-T fluorescence, mean of three wells (Fig. 7a): 0.9599
Reading M125, compound at 50 (head suffix _50)
  Th-T fluorescence, mean of three wells (Fig. 7a): 0.4931
Reading M126, compound at 10 (head suffix _10)
  Th-T fluorescence, mean of three wells (Fig. 7a): 1.704
Reading M126, compound at 20 (head suffix _20)
  Th-T fluorescence, mean of three wells (Fig. 7a): 0.9491
Reading M126, compound at 50 (head suffix _50)
  Th-T fluorescence, mean of three wells (Fig. 7a): 0.4978
Reading M127, compound at 10 (head suffix _10)
  Th-T fluorescence, mean of three wells (Fig. 7a): 1.72
Reading M127, compound at 20 (head suffix _20)
  Th-T fluorescence, mean of three wells (Fig. 7a): 0.9533
Reading M127, compound at 50 (head suffix _50)
  Th-T fluorescence, mean of three wells (Fig. 7a): 0.4965
Reading M128, compound at 10 (head suffix _10)
  Th-T fluorescence, mean of three wells (Fig. 7a): 1.676
Reading M128, compound at 20 (head suffix _20)
  Th-T fluorescence, mean of three wells (Fig. 7a): 0.9486
Reading M128, compound at 50 (head suffix _50)
  Th-T fluorescence, mean of three wells (Fig. 7a): 0.4971
time-course reading M97
  Th-T fluorescence, mean of three wells: 1.027
time-course reading M98
  Th-T fluorescence, mean of three wells: 1.0353
time-course reading M99
  Th-T fluorescence, mean of three wells: 1.027
time-course reading M100
  Th-T fluorescence, mean of three wells: 1.023
time-course reading M101
  Th-T fluorescence, mean of three wells: 1.038
time-course reading M102
  Th-T fluorescence, mean of three wells: 1.048
time-course reading M103
  Th-T fluorescence, mean of three wells: 1.038
time-course reading M104
  Th-T fluorescence, mean of three wells: 1.045
time-course reading M105
  Th-T fluorescence, mean of three wells: 1.028
time-course reading M106
  Th-T fluorescence, mean of three wells: 1.044
time-course reading M107
  Th-T fluorescence, mean of three wells: 1.045
time-course reading M108
  Th-T fluorescence, mean of three wells: 1.036
time-course reading M109
  Th-T fluorescence, mean of three wells: 1.034
time-course reading M110
  Th-T fluorescence, mean of three wells: 1.043
time-course reading M111
  Th-T fluorescence, mean of three wells: 1.041
time-course reading M112
  Th-T fluorescence, mean of three wells: 1.036
time-course reading M113
  Th-T fluorescence, mean of three wells: 1.022
time-course reading M114
  Th-T fluorescence, mean of three wells: 1.039
time-course reading M115
  Th-T fluorescence, mean of three wells: 1.052
time-course reading M116
  Th-T fluorescence, mean of three wells: 1.042
